# Active and inactive are the calls of the source. The calls are words filed in the database; no cut-off is given here.
# Legend:
# Aspergillus flavus [1] = test: Synergistic antifungal activity against Aspergillus flavus ATCC 16870 assessed as polyoxin B MIC incubated for 24 hrs by checkerboard broth microdilution method; assay type: functional
# Aspergillus fumigatus [2] = test: Antifungal activity against Aspergillus fumigatus GIMCC 3.19 assessed as inhibition of cell wall synthesis incubated for 24 hrs in presence of sorbitol; assay type: functional
# Cryptococcus neoformans [3] = test: Antifungal activity against Cryptococcus neoformans ATCC 32719 assessed as inhibition of cell wall synthesis incubated for 24 hrs in absence of sorbitol; assay type: functional
# Candida albicans [4] = test: Additive antifungal activity against Candida albicans ATCC 76615 assessed as fractional inhibitory concentration index incubated for 24 hrs in presence of fluconazole by checkerboard broth microdilution method; assay type: functional
# Aspergillus fumigatus [5] = test: Antifungal activity against Aspergillus fumigatus GIMCC 3.19 assessed as inhibition of cell wall synthesis incubated for 24 hrs in absence of sorbitol; assay type: functional
# Aspergillus flavus [6] = test: Synergistic antifungal activity against Aspergillus flavus ATCC 16870 assessed as fluconazole MIC incubated for 24 hrs in by checkerboard broth microdilution method; assay type: functional
# Candida albicans [7] = test: Antifungal activity against Candida albicans ATCC 76615 assessed as fungal growth inhibition incubated for 24 hrs by two-fold serial dilution method; assay type: functional
# Candida albicans [8] = test: Antifungal activity against Candida albicans ATCC 76615 assessed as inhibition of cell wall synthesis incubated for 24 hrs in absence of sorbitol; assay type: functional
# Aspergillus fumigatus [9] = test: Antifungal activity against Aspergillus fumigatus GIMCC 3.19 assessed as fungal growth inhibition incubated for 24 hrs by two-fold serial dilution method; assay type: functional
# Candida albicans [10] = test: Synergistic antifungal activity against Candida albicans ATCC 76615 assessed as polyoxin B MIC incubated for 24 hrs by checkerboard broth microdilution method; assay type: functional
# Aspergillus fumigatus [11] = test: Additive antifungal activity against Aspergillus fumigatus GIMCC 3.19 assessed as fractional inhibitory concentration index incubated for 24 hrs in presence of fluconazole by checkerboard broth microdilution method; assay type: functional
# Candida albicans [12] = test: Antifungal activity against Candida albicans ATCC 76615 assessed as inhibition of cell wall synthesis incubated for 24 hrs in presence of sorbitol; assay type: functional
# Cryptococcus neoformans [13] = test: Synergistic antifungal activity against Cryptococcus neoformans ATCC 32719 assessed as fluconazole MIC incubated for 24 hrs in by checkerboard broth microdilution method; assay type: functional
# [14] = Inhibition of Candida tropicalis ATCC 750 chitin synthase using UDP-GlcNAc as substrate incubated for 1 hr by absorbance based assay
# Cryptococcus neoformans [15] = test: Antifungal activity against Cryptococcus neoformans ATCC 32719 assessed as inhibition of cell wall synthesis incubated for 24 hrs in presence of sorbitol; assay type: functional
# Aspergillus flavus [16] = test: Additive antifungal activity against Aspergillus flavus ATCC 16870 assessed as fractional inhibitory concentration index incubated for 24 hrs in presence of polyoxin B by checkerboard broth microdilution method; assay type: functional
# Cryptococcus neoformans [17] = test: Synergistic antifungal activity against Cryptococcus neoformans ATCC 32719 assessed as fractional inhibitory concentration index incubated for 24 hrs in presence of fluconazole by checkerboard broth microdilution method; assay type: functional
# Cryptococcus neoformans [18] = test: Synergistic antifungal activity against Cryptococcus neoformans ATCC 32719 assessed as fractional inhibitory concentration index incubated for 24 hrs in presence of polyoxin B by checkerboard broth microdilution method; assay type: functional
# Cryptococcus neoformans [19] = test: Antifungal activity against Cryptococcus neoformans ATCC 32719 assessed as fungal growth inhibition incubated for 24 hrs by two-fold serial dilution method; assay type: functional
# Aspergillus fumigatus [20] = test: Synergistic antifungal activity against Aspergillus fumigatus GIMCC 3.19 assessed as polyoxin B MIC incubated for 24 hrs by checkerboard broth microdilution method; assay type: functional
# Candida albicans [21] = test: Antifungal activity against Micafungin-resistant Candida albicans ATCC 76615R assessed as fungal growth inhibition; assay type: functional
# Aspergillus flavus [22] = test: Antifungal activity against Aspergillus flavus ATCC 16870 assessed as inhibition of cell wall synthesis incubated for 24 hrs in presence of sorbitol; assay type: functional
# Candida tropicalis [23] = test: Inhibition of Candida tropicalis ATCC 750 chitin synthase using […] as substrate at 300 ug/ml incubated for 1 hr by absorbance based assay relative to control; conditions: dose 300.0 µg/ml
# Cryptococcus neoformans [24] = test: Synergistic antifungal activity against Cryptococcus neoformans ATCC 32719 assessed as polyoxin B MIC incubated for 24 hrs in by checkerboard broth microdilution method; assay type: functional
# Aspergillus fumigatus [25] = test: Antifungal activity against Fluconazole-resistant Aspergillus fumigatus GIMCC 3.19R assessed as fungal growth inhibition; assay type: functional
# Aspergillus fumigatus [26] = test: Synergistic antifungal activity against Aspergillus fumigatus GIMCC 3.19 assessed as fluconazole MIC incubated for 24 hrs in by checkerboard broth microdilution method; assay type: functional
# Candida albicans [27] = test: Synergistic antifungal activity against Candida albicans ATCC 76615 assessed as fluconazole MIC incubated for 24 hrs in by checkerboard broth microdilution method; assay type: functional
# Candida albicans [28] = test: Additive antifungal activity against Candida albicans ATCC 76615 assessed as fractional inhibitory concentration index incubated for 24 hrs in presence of polyoxin B by checkerboard broth microdilution method; assay type: functional
# Aspergillus flavus [29] = test: Antifungal activity against Fluconazole-resistant Aspergillus flavus ATCC 16870R assessed as fungal growth inhibition; assay type: functional
# Candida albicans [30] = test: Antifungal activity against Fluconazole-resistant Candida albicans ATCC 76615R assessed as fungal growth inhibition; assay type: functional
# Cryptococcus neoformans [31] = test: Antifungal activity against Fluconazole-resistant Cryptococcus neoformans ATCC 32719R assessed as fungal growth inhibition; assay type: functional
# Aspergillus flavus [32] = test: Antifungal activity against Aspergillus flavus ATCC 16870 assessed as inhibition of cell wall synthesis incubated for 24 hrs in absence of sorbitol; assay type: functional
# Aspergillus fumigatus [33] = test: Synergistic antifungal activity against Aspergillus fumigatus GIMCC 3.19 assessed as fractional inhibitory concentration index incubated for 24 hrs in presence of polyoxin B by checkerboard broth microdilution method; assay type: functional
# Aspergillus flavus [34] = test: Antifungal activity against Aspergillus flavus ATCC 16870 assessed as fungal growth inhibition incubated for 24 hrs by two-fold serial dilution method; assay type: functional
# Aspergillus flavus [35] = test: Additive antifungal activity against Aspergillus flavus ATCC 16870 assessed as fractional inhibitory concentration index incubated for 24 hrs in presence of fluconazole by checkerboard broth microdilution method; assay type: functional
# [36] = Inhibition of Saccharomyces cerevisiae CGMCC2.145 chitin synthase […] by TMB based microplate reader analysis
# Candida tropicalis [37] = test: Non competitive inhibition of Candida tropicalis ATCC 750 chitin synthase using UDP-GlcNAc as substrate assessed as decrease in Vmax with constant Km at 0.05 to 0.15 mM incubated for 1 hr by Michaelis-Menten analysis; conditions: dose 0.05-0.15 mM
# Candida tropicalis [38] = test: Non competitive inhibition of Candida tropicalis ATCC 750 chitin synthase using UDP-GlcNAc as substrate assessed as Vmax at 0.05 to 0.15 mM incubated for 1 hr by Michaelis-Menten analysis; conditions: dose 0.05-0.15 mM
# Candida albicans [39] = test: Synergistic antifungal activity against Candida albicans ATCC 76615 assessed as fractional inhibitory concentration index incubated for 24 hrs in presence of polyoxin B by checkerboard broth microdilution method; assay type: functional
# [40] = Cytotoxicity against human A549 cells assessed as cell viability at 8 ug/ml incubated for 24 hrs by CCK-8 assay relative to control; assay type: toxicity, cell-based; conditions: at 8 µg/mL, read-out: Activity
# [41] = Non competitive inhibition of Candida tropicalis ATCC 750 chitin synthase using UDP-GlcNAc as substrate assessed as inhibition constant incubated for 1 hr by double reciprocal plot analysis
# Aspergillus fumigatus [42] = test: Synergistic antifungal activity against Aspergillus fumigatus GIMCC 3.19 assessed as fractional inhibitory concentration index incubated for 24 hrs in presence of fluconazole by checkerboard broth microdilution method; assay type: functional
# [43] = Cytotoxicity against human A549 cells assessed as cell viability at 4 ug/ml incubated for 24 hrs by CCK-8 assay relative to control; assay type: toxicity, cell-based; conditions: at 4 µg/mL, read-out: Activity
# A549 = test: Cytotoxicity against human A549 cells assessed as cell viability incubated for 24 hrs at 128 ug/ml by CCK-8 assay relative to control; conditions: dose 128 µg/ml
# Aspergillus flavus [44] = test: Synergistic antifungal activity against Aspergillus flavus ATCC 16870 assessed as fractional inhibitory concentration index incubated for 24 hrs in presence of polyoxin B by checkerboard broth microdilution method; assay type: functional
# Candida albicans [45] = test: Synergistic antifungal activity against Candida albicans ATCC 76615 assessed as fractional inhibitory concentration index incubated for 24 hrs in presence of fluconazole by checkerboard broth microdilution method; assay type: functional
# [46] = Cytotoxicity against human A549 cells assessed as cell viability at 16 ug/ml incubated for 24 hrs by CCK-8 assay relative to control; assay type: toxicity, cell-based; conditions: at 16 µg/mL, read-out: Activity
# [47] = Cytotoxicity against human A549 cells assessed as cell viability at 32 ug/ml incubated for 24 hrs by CCK-8 assay relative to control; assay type: toxicity, cell-based; conditions: at 32 µg/mL, read-out: Activity
# [48] = Cytotoxicity against human A549 cells assessed as cell viability at 64 ug/ml incubated for 24 hrs by CCK-8 assay relative to control; assay type: toxicity, cell-based; conditions: at 64 µg/mL, read-out: Activity
# Aspergillus flavus [49] = test: Synergistic antifungal activity against Aspergillus flavus ATCC 16870 assessed as fractional inhibitory concentration index incubated for 24 hrs in presence of fluconazole by checkerboard broth microdilution method; assay type: functional
# Candida tropicalis [50] = test: Non competitive inhibition of Candida tropicalis ATCC 750 chitin synthase using UDP-GlcNAc as substrate assessed as Km at 0.05 to 0.15 mM incubated for 1 hr by Michaelis-Menten analysis; conditions: dose 0.05-0.15 mM
smiles,measurement,setting,value
O=C(/C=C/C(=O)Nc1ccc2c(c1)C(=O)NC1(CCSC1)N2)Nc1ccc(Br)cc1 (stereo unspecified),MIC,Aspergillus flavus [1],2 µg/mL
same,MIC,Aspergillus fumigatus [2],256 µg/mL
same,MIC,Cryptococcus neoformans [3],8 µg/mL
same,fractional inhibitory concentration index (FICI),Candida albicans [4],1.5
same,MIC,Aspergillus fumigatus [5],16 µg/mL
same,MIC,Aspergillus flavus [6],4 µg/mL
same,MIC,Candida albicans [7],16 µg/mL
same,MIC,Candida albicans [8],16 µg/mL
same,MIC,Aspergillus fumigatus [9],8 µg/mL
same,MIC,Candida albicans [10],2 µg/mL
same,fractional inhibitory concentration index (FICI),Aspergillus fumigatus [11],1.125
same,MIC,Candida albicans [12],128 µg/mL
same,MIC,Cryptococcus neoformans [13],2 µg/mL
same,IC50,[14],117 µM
same,MIC,Cryptococcus neoformans [15],128 µg/mL
same,fractional inhibitory concentration index (FICI),Aspergillus flavus [16],1.125
same,fractional inhibitory concentration index (FICI),Cryptococcus neoformans [17],0.75
same,fractional inhibitory concentration index (FICI),Cryptococcus neoformans [18],0.75
same,MIC,Cryptococcus neoformans [19],2 µg/mL
same,MIC,Aspergillus fumigatus [20],8 µg/mL
same,MIC,Candida albicans [21],16 µg/mL
same,MIC,Aspergillus flavus [22],256 µg/mL
same,inhibition,Candida tropicalis [23],75.3%
same,MIC,Cryptococcus neoformans [24],4 µg/mL
same,MIC,Aspergillus fumigatus [25],16 µg/mL
same,MIC,Aspergillus fumigatus [26],1 µg/mL
same,MIC,Candida albicans [27],1 µg/mL
same,fractional inhibitory concentration index (FICI),Candida albicans [28],1.25
same,MIC,Aspergillus flavus [29],32 µg/mL
same,MIC,Candida albicans [30],32 µg/mL
same,MIC,Cryptococcus neoformans [31],8 µg/mL
same,MIC,Aspergillus flavus [32],32 µg/mL
same,fractional inhibitory concentration index (FICI),Aspergillus fumigatus [33],1
same,MIC,Aspergillus flavus [34],16 µg/mL
same,fractional inhibitory concentration index (FICI),Aspergillus flavus [35],1.5
O=C(Nc1cccc(C(F)(F)F)c1)C1CCN(CC(=O)N2CCC3(CCNC3=O)CC2)CC1,IC50,[36],100 µM
O=C(/C=C/C(=O)Nc1ccc2c(c1)C(=O)NC1(CCSC1)N2)Nc1ccc([N+](=O)[O-])cc1 (stereo unspecified),MIC,Aspergillus flavus [1],2 µg/mL
same,inhibition,Candida tropicalis [37],Active
same,Vmax,Candida tropicalis [38],1.21 deltaOD/hr
same,MIC,Aspergillus fumigatus [2],128 µg/mL
same,fractional inhibitory concentration index (FICI),Candida albicans [39],0.75
same,MIC,Cryptococcus neoformans [3],4 µg/mL
same,"viability at 24 h, 8 ug/ml",[40],94.3%
same,Ki,[41],160 µM
same,fractional inhibitory concentration index (FICI),Aspergillus fumigatus [42],0.75
same,"viability at 24 h, 4 ug/ml",[43],95.1%
same,MIC,Aspergillus fumigatus [5],8 µg/mL
same,MIC,Aspergillus flavus [6],1 µg/mL
same,MIC,Candida albicans [7],1 µg/mL
same,MIC,Candida albicans [8],4 µg/mL
same,MIC,Aspergillus fumigatus [9],2 µg/mL
same,MIC,Candida albicans [10],2 µg/mL
same,viability,A549,62.2%
same,fractional inhibitory concentration index (FICI),Aspergillus flavus [44],0.375
same,fractional inhibitory concentration index (FICI),Candida albicans [45],0.5
same,MIC,Candida albicans [12],64 µg/mL
same,MIC,Cryptococcus neoformans [13],2 µg/mL
same,"viability at 24 h, 16 ug/ml",[46],94%
same,IC50,[14],107 µM
same,MIC,Cryptococcus neoformans [15],32 µg/mL
same,fractional inhibitory concentration index (FICI),Cryptococcus neoformans [17],1
same,fractional inhibitory concentration index (FICI),Cryptococcus neoformans [18],0.75
same,MIC,Cryptococcus neoformans [19],2 µg/mL
same,MIC,Aspergillus fumigatus [20],8 µg/mL
same,MIC,Candida albicans [21],8 µg/mL
same,MIC,Aspergillus flavus [22],64 µg/mL
same,inhibition,Candida tropicalis [23],82.3%
same,"viability at 24 h, 32 ug/ml",[47],87.8%
same,MIC,Cryptococcus neoformans [24],4 µg/mL
same,"viability at 24 h, 64 ug/ml",[48],67.1%
same,MIC,Aspergillus fumigatus [25],8 µg/mL
same,MIC,Aspergillus fumigatus [26],4 µg/mL
same,MIC,Candida albicans [27],0.5 µg/mL
same,fractional inhibitory concentration index (FICI),Aspergillus flavus [49],0.5
same,MIC,Aspergillus flavus [29],8 µg/mL
same,MIC,Candida albicans [30],8 µg/mL
same,Km,Candida tropicalis [50],5.18 mM
same,MIC,Cryptococcus neoformans [31],4 µg/mL
same,MIC,Aspergillus flavus [32],4 µg/mL
same,fractional inhibitory concentration index (FICI),Aspergillus fumigatus [33],1
same,MIC,Aspergillus flavus [34],1 µg/mL
